In brackets after ≈: the same amount, converted by molar mass. Some results are limits rather than exact numbers.

Experimental findings from ChEMBL document CHEMBL3808365, “Potent and Selective CK2 Kinase Inhibitors with Effects on Wnt Pathway Signaling in Vivo” (ACS Med Chem Lett, 2016) are described below.

The nature of data set [1]: Aqueous solubility of the compound in phosphate buffer at pH 7.4 incubated for 24 hrs by LC/MS/MS method. Type of data set: physicochemical.
A short description of data set [2]: Intrinsic clearance in human liver microsomes. Type of data set: ADME. The following applies: read-out: CLH. On the technique in general: Liver microsomes are a subcellular fraction often used to study metabolism.
Data set [3] in a line: Intrinsic clearance in rat hepatocyte assessed per 10^6 cells. Type of data set: ADME, cell-based. The conditions noted are these: hepatocytes, read-out: CLH.
Data set [4] in a line: Fraction unbound in human plasma at 10 uM by equilibrium dialysis method. In kind it is ADME, cell-free.
The target in data set [5] is Casein kinase II subunit alpha (Homo sapiens, UniProt P68400). The data set is described as follows: Inhibition of full length N-terminal 6xHis-tagged recombinant human CK2alpha expressed in fall armyworm Sf21 cells using BODIPY-FL-RRRDDDSDDD-CONH2 as substrate after 90 mins by mobility shift assay.
Sequence of Casein kinase II subunit alpha (P68400 whole entry): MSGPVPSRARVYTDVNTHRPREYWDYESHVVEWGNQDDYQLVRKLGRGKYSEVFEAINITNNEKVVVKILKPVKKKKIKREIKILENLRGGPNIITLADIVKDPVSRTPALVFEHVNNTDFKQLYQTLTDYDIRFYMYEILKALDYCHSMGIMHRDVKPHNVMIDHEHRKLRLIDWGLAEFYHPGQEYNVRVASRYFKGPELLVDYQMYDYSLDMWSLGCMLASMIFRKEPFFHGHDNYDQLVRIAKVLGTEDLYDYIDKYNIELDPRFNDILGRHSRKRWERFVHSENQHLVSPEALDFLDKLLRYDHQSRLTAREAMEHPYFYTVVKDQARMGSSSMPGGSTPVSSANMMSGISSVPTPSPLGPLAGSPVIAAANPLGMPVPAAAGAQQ
Data set [6] can be described thus: Antiproliferative activity against human […] cells after 72 hrs by alamar blue assay. The following applies: HCT-116, 72 h. In kind it is functional. In general terms: Resazurin is reduced to fluorescent resorufin, in cell work by metabolically active cells.
A short description of data set [7]: Antiproliferative activity against human SW620 cells after 72 hrs by alamar blue assay. In kind it is functional. The following applies: SW-620, 72 h.
Data set [8] is described as follows: Inhibition of CK2 in mouse L-Wnt3a cells assessed as suppression of Wnt3a-mediated L S/L Super TOPFlash reporter gene transcription after 24 hrs. The conditions noted are these: L Wnt-3A.
A further data set addresses Casein kinase II (Homo sapiens, UniProt P19784+P67870+P68400). The data set is described as follows: Inhibition of CK2 in human DLD1 HA-myr-AKT1 cells assessed as suppression of AKTser129 phosphorylation after 3 to 24 hrs by Western blot analysis.
Data set [9] can be described thus: Antiproliferative activity against human DLD1 cells after 72 hrs by alamar blue assay. Type of data set: functional. The following applies: DLD-1, 72 h.

Sequence of Casein kinase II (P67870 whole entry): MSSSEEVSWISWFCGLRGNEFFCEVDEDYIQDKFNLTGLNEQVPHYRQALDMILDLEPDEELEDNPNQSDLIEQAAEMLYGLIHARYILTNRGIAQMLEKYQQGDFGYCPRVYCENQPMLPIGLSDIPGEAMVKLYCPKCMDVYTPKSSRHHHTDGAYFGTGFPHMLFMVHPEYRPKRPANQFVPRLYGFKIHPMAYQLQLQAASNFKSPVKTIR
Sequence of Casein kinase II (P68400 whole entry): as the sequence (P68400 whole entry) above
Sequence of Casein kinase II (P19784 whole entry): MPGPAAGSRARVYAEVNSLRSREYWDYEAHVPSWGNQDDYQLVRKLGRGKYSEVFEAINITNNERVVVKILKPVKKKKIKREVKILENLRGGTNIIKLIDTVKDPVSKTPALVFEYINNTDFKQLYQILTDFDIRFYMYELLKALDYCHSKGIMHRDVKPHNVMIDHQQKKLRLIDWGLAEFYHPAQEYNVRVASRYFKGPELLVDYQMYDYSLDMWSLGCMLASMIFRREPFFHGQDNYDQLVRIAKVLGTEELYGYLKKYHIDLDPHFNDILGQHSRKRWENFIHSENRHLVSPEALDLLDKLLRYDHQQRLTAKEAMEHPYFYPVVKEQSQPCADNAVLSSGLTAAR

Turning to `CC(=O)Nc1cc(Nc2cc(NC3CC3)n3ncc(C#N)c3n2)ccc1N(C)CCO`, the solubility (as a rule, the concentration that dissolves in the medium under given conditions) at 24 h in data set [1] was 2 µM (≈ 0.841 µg/mL). In data set [2], the microsomal CLint was found to be 21 µL/min/mg. Moreover, in [3], the hepatocyte CLint stood at 17 µL/min/1e6 cells. Besides, the free fraction (fraction unbound) (in general, free concentration divided by total concentration) at 10 µM in data set [4] was 0.07. In addition, the IC50 (usually the midpoint of a concentration-inhibition curve) in [5] is under 3 nM.

For the compound `CC(=O)Nc1cccc(Nc2cc(NC3CC3)n3ncc(C#N)c3n2)c1`, the solubility at 24 h in data set [1] was 15 µM (≈ 5.21 µg/mL). The microsomal CLint in [2] turned out to be 20 µL/min/mg. Moreover, the hepatocyte CLint in data set [3] is 26 µL/min/1e6 cells. For the same compound, the concentration for 50% growth inhibition (GI50) in data set [6] and in data set [7] was 700 nM in each case. In data set [4], this compound displayed a fraction unbound at 10 µM of 0.05. For the same compound, the half-inhibitory concentration (IC50) in data set [8] is 600 nM.

In [1], `CC(=O)Nc1cc(Nc2cc(NC3CC3)n3ncc(C#N)c3n2)ccc1N(C)C[C@H](C)N` displayed a solubility at 24 h of 895 µM (≈ 388 µg/mL). In addition, the microsomal CLint in data set [2] was under 3 µL/min/mg. Besides, in data set [3], the hepatocyte CLint was under 1 µL/min/1e6 cells. Also, the unbound share (fraction unbound) at 10 µM in [4] came out at 0.36. Besides, the concentration for half-maximal inhibition (IC50) is 670 nM in data set [8], under 3 nM in [5] and 4 nM at Casein kinase II.

As for `CC(=O)Nc1cc(Nc2cc(NC3CC3)n3ncc(C#N)c3n2)ccc1N1CCC[C@@H](N(C)C)C1`, the solubility at 24 h in data set [1] was over 900 µM. For the same compound, the microsomal CLint in data set [2] was 19 µL/min/mg. Besides, the hepatocyte CLint in data set [3] was under 1 µL/min/1e6 cells. This compound gave an unbound share (fraction unbound) at 10 µM in [4] of 0.11. Further, the IC50 in data set [8] turned out to be 510 nM.

Turning to `CCN(CC)CCN(C)c1ccc(Nc2cc(NC3CC3)n3ncc(C#N)c3n2)cc1NC(C)=O`, in data set [1], the solubility at 24 h was over 1000 µM. Also, the microsomal CLint in data set [2] is 44 µL/min/mg. Also, the hepatocyte CLint in data set [3] came out at 27 µL/min/1e6 cells. The free fraction (fraction unbound) at 10 µM in data set [4] is 0.23. Besides, the IC50 in data set [8] amounted to 390 nM.

Take `CC(=O)Nc1cc(Nc2cc(NC3CC3)n3ncc(C#N)c3n2)ccc1N1CCC[C@H](N)C1`: in data set [1], the concentration in solution (solubility at 24 h) was 704 µM (≈ 314 µg/mL). In addition, the microsomal CLint in data set [2] is under 3 µL/min/mg. Moreover, in data set [3], the hepatocyte CLint is under 1 µL/min/1e6 cells. This compound returned a fraction unbound at 10 µM in data set [4] of 0.22. The half-inhibitory concentration (IC50) in data set [8] came out at 180 nM.

Consider `CC(=O)Nc1cc(Nc2cc(NC3CC3)n3ncc(C#N)c3n2)ccc1N(C)C[C@@H](C)N`, for which the concentration in solution in data set [1] (solubility at 24 h) was 825 µM (≈ 358 µg/mL). In addition, the microsomal CLint in data set [2] was under 3 µL/min/mg. In addition, the hepatocyte CLint in data set [3] is under 1 µL/min/1e6 cells. The same compound had a free fraction (fraction unbound) at 10 µM in data set [4] of 0.33. For the same compound, the half-inhibitory concentration (IC50) was 400 nM in data set [8], under 3 nM in [5] and 4 nM on Casein kinase II.

Compound `CC(=O)Nc1cc(Nc2cc(NC3CC3)n3ncc(C#N)c3n2)ccc1N(C)CCN1CCOCC1` displayed a solubility at 24 h in data set [1] of 275 µM (≈ 135 µg/mL). Further, the microsomal CLint in [2] stood at 135 µL/min/mg. Moreover, in [3], the hepatocyte CLint is over 300 µL/min/1e6 cells. This compound returned an unbound share (fraction unbound) at 10 µM in data set [4] of 0.18. Further, the IC50 in [8] was 300 nM; in data set [5] it was under 3 nM; on Casein kinase II, 5 nM.

Take `CC(=O)Nc1cc(Nc2cc(NC3CC3)n3ncc(C#N)c3n2)ccc1N1CC[C@H](N)C1`: the concentration in solution in data set [1] (solubility at 24 h) came to 590 µM (≈ 255 µg/mL). Further, in [2], the microsomal CLint is under 3 µL/min/mg. In data set [3], the hepatocyte CLint is under 1 µL/min/1e6 cells. This compound had a fraction unbound at 10 µM in [4] of 0.31. Also, the IC50 in data set [8] was 690 nM; in data set [5], under 3 nM; at Casein kinase II, 70 nM.

Compound `CC(=O)Nc1cc(Nc2cc(NC3CC3)n3ncc(C#N)c3n2)ccc1N1CCN(C)CC1` had a solubility at 24 h in data set [1] of 570 µM (≈ 254 µg/mL). For the same compound, in data set [2], the microsomal CLint was under 4 µL/min/mg. The hepatocyte CLint in data set [3] worked out at 7 µL/min/1e6 cells. This compound also returned an unbound share (fraction unbound) at 10 µM in data set [4] of 0.18. The IC50 in data set [8] came to 1100 nM.

As for `CC(=O)Nc1cc(Nc2cc(NC3CC3)n3ncc(C#N)c3n2)ccc1N1CCC[C@@H](N)C1`, in data set [1], the solubility at 24 h is over 1000 µM. Moreover, in data set [2], the microsomal CLint is under 3 µL/min/mg. Also, in data set [3], the hepatocyte CLint is under 1 µL/min/1e6 cells. Besides, the unbound share (fraction unbound) at 10 µM in data set [4] amounted to 0.2. The IC50 in [8] is 650 nM.

Turning to `CC(=O)Nc1cc(Nc2cc(NC3CC3)n3ncc(C#N)c3n2)ccc1N1CC[C@@H](N)C1`, in data set [1], the concentration in solution (solubility at 24 h) was 812 µM (≈ 350 µg/mL). For the same compound, the microsomal CLint in data set [2] was under 3 µL/min/mg. Besides, the hepatocyte CLint in data set [3] stood at 2.5 µL/min/1e6 cells. Further, in [4], the fraction unbound at 10 µM is 0.32. The results for the IC50 (in data set [8]; in data set [5]; on Casein kinase II) were 960 nM, under 3 nM and 70 nM, respectively.

For `CCN(CCN)c1ccc(Nc2cc(NC3CC3)n3ncc(C#N)c3n2)cc1NC(C)=O`, the solubility at 24 h in [1] was over 1000 µM. Also, the microsomal CLint in data set [2] was found to be 5 µL/min/mg. Also, the hepatocyte CLint in [3] was 2 µL/min/1e6 cells. Also, the free fraction (fraction unbound) at 10 µM in [4] is 0.3. Further, the IC50 was 32 nM in [8] and under 3 nM in [5].

On to `CC(=O)Nc1cc(Nc2cc(NC3CC3)n3ncc(C#N)c3n2)ccc1C`, for which the microsomal CLint in [2] was 10 µL/min/mg. The hepatocyte CLint in data set [3] was determined as 5 µL/min/1e6 cells. In addition, the GI50 (usually the concentration at which growth is held to half of that of the control) came out at 80 nM in data set [6], 170 nM in [9] and 100 nM in data set [7]. For the same compound, the fraction unbound at 10 µM in [4] is 0.1.

Take `CC(=O)Nc1cc(Nc2cc(NC3CC3)n3ncc(C#N)c3n2)ccc1N1CC[C@H](N(C)C)C1`: the solubility at 24 h in data set [1] was over 800 µM. Besides, in data set [2], the microsomal CLint was found to be 9 µL/min/mg. Besides, the hepatocyte CLint in [3] was 2.5 µL/min/1e6 cells. For the same compound, the free fraction (fraction unbound) at 10 µM in [4] was determined as 0.29. The half-inhibitory concentration (IC50) in [8] worked out at 380 nM.

For `CC(=O)Nc1cc(Nc2cc(NC3CC3)n3ncc(C#N)c3n2)ccc1N(C)CCCN(C)C`, the solubility at 24 h in [1] is over 1000 µM. Moreover, the microsomal CLint in [2] is under 4 µL/min/mg. Moreover, the hepatocyte CLint in [3] turned out to be 15 µL/min/1e6 cells. Besides, in data set [4], the fraction unbound at 10 µM came out at 0.22. Moreover, the 50% inhibitory concentration (IC50) in [8] came out at 730 nM.

With `CC(=O)Nc1cc(Nc2cc(NC3CC3)n3ncc(C#N)c3n2)ccc1N(C)CCN1CC(F)(F)C1`, the concentration in solution in data set [1] (solubility at 24 h) came to 241 µM (≈ 119 µg/mL). The compound also yielded a fraction unbound at 10 µM in [4] of 0.02. The IC50 in data set [8] is 760 nM.
